Reference: US20140163026A1, “8-ETHYL-6-(ARYL)PYRIDO[2,3-D]PYRIMIDIN-7(8H)-ONES FOR THE TREATMENT OF NERVOUS SYSTEM DISORDERS AND CANCER” (Afraxis Holdings, Inc., priority 2011, published 2014)
Values belong to the compound of their own block, whether it stands above or below them.

Key:
Format in all cases: biochemical
PAK4 = PAK4 (Homo sapiens, UniProt O96013); test: In vitro PAK inhibition assay (SelectScreen, Ser/Thr 20 peptide)
Summary of the method: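 Ten-point, 3-fold compound series (1% DMSO) incubated 1 h at room temperature with PAK4 (0.1-0.75 ng) and 2 μM Ser/Thr 20 peptide, HEPES pH 7.5 buffer with MgCl2, EGTA, BRIJ-35. Development reagent cleaves non-phosphorylated peptide; fluorescence emission ratio gives % phosphorylation, fitted sigmoidally for IC50.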

PAK2 (PAK65) = PAK2 (PAK65) (Homo sapiens, UniProt Q13177); test: as above
Summary of the method: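 Ten-point threefold compound dilutions (1% DMSO) were incubated with PAK2 (0.29-6 ng) and Ser/Thr 20 substrate (2 μM) for 60 min at room temperature in HEPES pH 7.5 buffer with MgCl2, EGTA and BRIJ-35.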

PAK3 = PAK3 (Homo sapiens, UniProt O75914); test: as above
Summary of the method: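 Fluorescence-based development format: after a 60-min room-temperature kinase reaction and 60-min protease development, percent phosphorylation of Ser/Thr 20 peptide calculated via phosphopeptide controls. Buffer 50 mM HEPES pH 7.5, 10 mM MgCl2, 1 mM EGTA, 0.01% BRIJ-35; compounds at 1% DMSO, 10-point 3-fold dilution series.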

PAK1 = PAK1 (Homo sapiens, UniProt Q13153); test: In vitro PAK inhibition assay (SelectScreen, Ser/Thr 19 peptide)
Summary of the method: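 Ten-point, 3-fold compound series at 1% final DMSO were incubated with enzyme, Ser/Thr 19 peptide and ATP for 60 min at room temperature. Buffer was HEPES pH 7.5 (50 mM) with 10 mM MgCl2, 1 mM EGTA, 0.01% BRIJ-35. A 60 min development step preceded the fluorescence read converted to % phosphorylation.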

PAK4, sequence (O96013 whole entry): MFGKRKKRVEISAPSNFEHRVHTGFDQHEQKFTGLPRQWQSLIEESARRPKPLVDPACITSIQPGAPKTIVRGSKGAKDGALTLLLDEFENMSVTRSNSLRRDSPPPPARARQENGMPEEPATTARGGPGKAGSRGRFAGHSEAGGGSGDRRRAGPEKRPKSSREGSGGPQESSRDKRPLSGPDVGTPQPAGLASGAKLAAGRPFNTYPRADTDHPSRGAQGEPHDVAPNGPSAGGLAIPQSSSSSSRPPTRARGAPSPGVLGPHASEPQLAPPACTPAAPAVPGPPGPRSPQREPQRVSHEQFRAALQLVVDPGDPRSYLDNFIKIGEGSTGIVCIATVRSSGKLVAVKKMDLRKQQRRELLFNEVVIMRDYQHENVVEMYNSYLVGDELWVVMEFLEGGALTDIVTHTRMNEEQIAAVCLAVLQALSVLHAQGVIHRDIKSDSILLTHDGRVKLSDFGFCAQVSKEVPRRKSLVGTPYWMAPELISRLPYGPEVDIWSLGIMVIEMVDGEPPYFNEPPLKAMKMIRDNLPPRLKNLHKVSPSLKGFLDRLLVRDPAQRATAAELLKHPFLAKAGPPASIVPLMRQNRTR
PAK3, sequence (O75914 whole entry): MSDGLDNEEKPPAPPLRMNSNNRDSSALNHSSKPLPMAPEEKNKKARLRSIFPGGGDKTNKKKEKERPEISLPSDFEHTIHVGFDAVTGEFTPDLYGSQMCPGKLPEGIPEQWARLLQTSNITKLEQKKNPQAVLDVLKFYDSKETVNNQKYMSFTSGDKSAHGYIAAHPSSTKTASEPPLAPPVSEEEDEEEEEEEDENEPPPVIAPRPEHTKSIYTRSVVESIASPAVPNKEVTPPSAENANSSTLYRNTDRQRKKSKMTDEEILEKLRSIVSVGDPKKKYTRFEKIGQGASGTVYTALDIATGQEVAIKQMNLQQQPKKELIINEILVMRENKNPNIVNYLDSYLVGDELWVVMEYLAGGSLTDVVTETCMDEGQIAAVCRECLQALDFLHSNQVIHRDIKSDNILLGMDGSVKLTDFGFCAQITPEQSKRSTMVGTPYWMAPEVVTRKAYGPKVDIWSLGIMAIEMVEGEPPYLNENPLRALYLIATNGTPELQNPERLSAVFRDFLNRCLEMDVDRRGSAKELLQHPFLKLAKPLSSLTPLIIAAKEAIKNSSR
PAK2 (PAK65), sequence (Q13177 whole entry): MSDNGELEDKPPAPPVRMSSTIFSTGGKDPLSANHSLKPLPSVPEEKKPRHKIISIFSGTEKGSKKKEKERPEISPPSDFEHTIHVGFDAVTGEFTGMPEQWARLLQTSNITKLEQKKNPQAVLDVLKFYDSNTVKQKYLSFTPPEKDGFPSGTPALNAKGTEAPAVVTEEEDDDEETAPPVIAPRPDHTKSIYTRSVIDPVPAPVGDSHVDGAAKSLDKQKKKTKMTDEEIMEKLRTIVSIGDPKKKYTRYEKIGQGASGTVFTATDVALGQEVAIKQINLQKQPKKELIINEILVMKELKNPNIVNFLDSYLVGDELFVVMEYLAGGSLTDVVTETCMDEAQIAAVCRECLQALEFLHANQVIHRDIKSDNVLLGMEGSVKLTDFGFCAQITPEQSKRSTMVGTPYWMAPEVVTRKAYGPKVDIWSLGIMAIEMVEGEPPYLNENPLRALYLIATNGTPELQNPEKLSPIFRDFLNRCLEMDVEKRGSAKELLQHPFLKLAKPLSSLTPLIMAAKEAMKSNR
PAK1, sequence (Q13153 whole entry): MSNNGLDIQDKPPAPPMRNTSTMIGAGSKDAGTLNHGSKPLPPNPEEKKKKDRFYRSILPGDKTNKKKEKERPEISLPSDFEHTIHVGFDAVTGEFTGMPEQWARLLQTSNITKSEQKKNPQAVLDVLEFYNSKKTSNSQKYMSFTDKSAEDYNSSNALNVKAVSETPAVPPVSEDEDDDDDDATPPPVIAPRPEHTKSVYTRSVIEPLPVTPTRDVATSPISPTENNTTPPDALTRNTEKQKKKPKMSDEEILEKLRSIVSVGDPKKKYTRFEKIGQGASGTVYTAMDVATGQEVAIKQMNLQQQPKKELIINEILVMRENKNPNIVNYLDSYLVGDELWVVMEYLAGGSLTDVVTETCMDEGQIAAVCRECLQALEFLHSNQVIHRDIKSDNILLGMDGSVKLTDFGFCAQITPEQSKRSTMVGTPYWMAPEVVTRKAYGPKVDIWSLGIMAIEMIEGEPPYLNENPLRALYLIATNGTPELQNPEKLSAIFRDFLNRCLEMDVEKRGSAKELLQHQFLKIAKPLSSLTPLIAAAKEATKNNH

Compound: CCn1c(=O)c(-c2ccc(-c3nccnc3C)cc2C)cc2cnc(Nc3ccc(C4CCN(C)CC4)cc3)nc21
IC50 (PAK4): ≥ 5 µM
IC50 (PAK2 (PAK65)): < 50 nM
IC50 (PAK3): < 50 nM
IC50 (PAK1): < 50 nM

Compound: CC(=O)Nc1ncccc1-c1ccc(Cl)c(-c2cc3cnc(Nc4ccc(C5CCN(C)CC5)cc4)nc3n(C)c2=O)c1
IC50 (PAK4): ≥ 5 µM
IC50 (PAK2 (PAK65)): 50 to 500 nM
IC50 (PAK3): 500 to 5000 nM
IC50 (PAK1): 50 to 500 nM

Compound: CN1CCC(c2ccc(Nc3ncc4cc(-c5cc(-c6cccnc6N(C)C)ccc5Cl)c(=O)n(C)c4n3)cc2)CC1
IC50 (PAK4): ≥ 5 µM
IC50 (PAK2 (PAK65)): 500 to 5000 nM
IC50 (PAK3): > 5000 nM
IC50 (PAK1): 500 to 5000 nM

Compound: CN1CCC(c2ccc(Nc3ncc4cc(-c5cc(-c6cnccn6)ccc5Cl)c(=O)n(C)c4n3)cc2)CC1
IC50 (PAK4): ≥ 5 µM
IC50 (PAK2 (PAK65)): 500 to 5000 nM
IC50 (PAK3): 50 to 500 nM
IC50 (PAK1): 50 to 500 nM

Compound: Cc1ccc(-c2cccnc2)cc1-c1cc2cnc(Nc3ccc(C4CCN(C)CC4)cc3)nc2n(C)c1=O
IC50 (PAK4): ≥ 5 µM
IC50 (PAK2 (PAK65)): 500 to 5000 nM
IC50 (PAK3): 50 to 500 nM
IC50 (PAK1): 50 to 500 nM

Compound: Cc1nc(-c2ccc(Cl)c(-c3cc4cnc(Nc5ccc(C6CCN(C)CC6)cc5)nc4n(C)c3=O)c2)no1
IC50 (PAK4): ≥ 5 µM
IC50 (PAK2 (PAK65)): 500 to 5000 nM
IC50 (PAK3): 50 to 500 nM
IC50 (PAK1): 500 to 5000 nM

Compound: CN1CCC(c2ccc(Nc3ncc4cc(-c5cc(-c6ccncc6)ccc5Cl)c(=O)n(C)c4n3)cc2)CC1
IC50 (PAK4): ≥ 5 µM
IC50 (PAK2 (PAK65)): > 5000 nM
IC50 (PAK3): > 5000 nM
IC50 (PAK1): 500 to 5000 nM

Compound: CC(=O)N(C)c1ncccc1-c1ccc(Cl)c(-c2cc3cnc(Nc4ccc(C5CCN(C)CC5)cc4)nc3n(C)c2=O)c1
IC50 (PAK4): ≥ 5 µM
IC50 (PAK2 (PAK65)): > 5000 nM
IC50 (PAK3): 500 to 5000 nM
IC50 (PAK1): > 5000 nM

Compound: CN1CCC(c2ccc(Nc3ncc4cc(-c5cc(-c6ccccn6)ccc5Cl)c(=O)n(C)c4n3)cc2)CC1
IC50 (PAK4): ≥ 5 µM
IC50 (PAK2 (PAK65)): 500 to 5000 nM
IC50 (PAK3): 50 to 500 nM
IC50 (PAK1): 50 to 500 nM

Compound: Cc1cnc(-c2ccc(Cl)c(-c3cc4cnc(Nc5ccc(C6CCN(C)CC6)cc5)nc4n(C)c3=O)c2)s1
IC50 (PAK4): ≥ 5 µM
IC50 (PAK2 (PAK65)): > 5000 nM
IC50 (PAK3): 50 to 500 nM
IC50 (PAK1): 50 to 500 nM

Compound: CC(=O)N(C)c1cc(-c2cc3cnc(Nc4ccc(CCN(C)C)cc4)nc3n(C)c2=O)c(Cl)cc1-c1cccnc1
IC50 (PAK4): ≥ 5 µM
IC50 (PAK2 (PAK65)): 50 to 500 nM
IC50 (PAK3): 50 to 500 nM
IC50 (PAK1): 50 to 500 nM

Compound: CC(=O)Nc1ccnc(-c2ccc(Cl)c(-c3cc4cnc(Nc5ccc(C6CCN(C)CC6)cc5)nc4n(C)c3=O)c2)n1
IC50 (PAK4): ≥ 5 µM
IC50 (PAK2 (PAK65)): > 5000 nM
IC50 (PAK3): > 5000 nM
IC50 (PAK1): > 5000 nM

Next, values leading:

IC50 (PAK4): ≥ 5 µM
IC50 (PAK2 (PAK65)): 500 to 5000 nM
IC50 (PAK3): 50 to 500 nM
IC50 (PAK1): 50 to 500 nM
Compound: CCn1c(=O)c(-c2ccc(-c3ccsc3)cc2)cc2cnc(Nc3ccc(N4CCN(C)CC4)cc3)nc21

IC50 (PAK4): ≥ 5 µM
IC50 (PAK2 (PAK65)): > 5000 nM
IC50 (PAK3): > 5000 nM
IC50 (PAK1): 50 to 500 nM
Compound: CCn1c(=O)c(-c2ccc(-c3ccoc3)cc2)cc2cnc(Nc3ccc(N4CCN(C)CC4)cc3)nc21

IC50 (PAK4): ≥ 5 µM
IC50 (PAK2 (PAK65)): 50 to 500 nM
IC50 (PAK3): 50 to 500 nM
IC50 (PAK1): 50 to 500 nM
Compound: CC(=O)Nc1cc(-c2cc3cnc(Nc4ccc(CCN(C)C)cc4)nc3n(C)c2=O)c(Cl)cc1-c1cccnc1

IC50 (PAK4): 0.5 to 5 µM
IC50 (PAK2 (PAK65)): < 50 nM
IC50 (PAK3): 50 to 500 nM
IC50 (PAK1): < 50 nM
Compound: Cc1cnc(-c2ccc(-c3cc4cnc(Nc5ccc(C6CCN(C)CC6)cc5)nc4n(C)c3=O)c(C)c2)s1

IC50 (PAK4): ≥ 5 µM
IC50 (PAK2 (PAK65)): < 50 nM
IC50 (PAK3): < 50 nM
IC50 (PAK1): < 50 nM
Compound: Cc1nc(-c2ccc(-c3cc4cnc(Nc5ccc(C6CCN(C)CC6)cc5)nc4n(C)c3=O)c(C)c2)no1

IC50 (PAK4): 0.5 to 5 µM
IC50 (PAK2 (PAK65)): < 50 nM
IC50 (PAK3): 50 to 500 nM
IC50 (PAK1): < 50 nM
Compound: CCn1c(=O)c(-c2ccc(-c3ncc(C)s3)cc2C)cc2cnc(Nc3ccc(C4CCN(C)CC4)cc3)nc21

IC50 (PAK4): 0.5 to 5 µM
IC50 (PAK2 (PAK65)): > 5000 nM
IC50 (PAK3): 50 to 500 nM
IC50 (PAK1): 500 to 5000 nM
Compound: CN1CCC(c2ccc(Nc3ncc4cc(-c5cc(-c6nccc(N(C)C)n6)ccc5Cl)c(=O)n(C)c4n3)cc2)CC1

IC50 (PAK4): 0.5 to 5 µM
IC50 (PAK2 (PAK65)): > 5000 nM
IC50 (PAK3): > 5000 nM
IC50 (PAK1): > 5000 nM
Compound: CC(=O)Nc1ccc(-c2ccc(Cl)c(-c3cc4cnc(Nc5ccc(C6CCN(C)CC6)cc5)nc4n(C)c3=O)c2)cn1
